US3932400A, “Thiazole derivatives” (Sumitomo Chemical Company, Limited, priority 1972, dated 1976)

Key:
male mice = assay type: in vivo; conditions: intravenous; 10 male mice; up and down method
β-adrenergic receptor = β-adrenergic receptor blocking activity in open chest dog; assay type: in vivo; conditions: relative to propranolol = 1, pentbarbital-anesthetized open chest dog; for β-adrenergic receptor blocking activity in open chest dog (propranolol = 1), DDE: depressive effect on depressor effect (DDE) induced by intravenous isoproternol; for β-adrenergic receptor blocking activity in open chest dog (propranolol = 1), DPC: depressive effect on positive chronotropic (DPC) effect induced by intravenous isoproternol; for β-adrenergic receptor blocking activity in open chest dog (propranolol = 1), DPI: depressive effect on positive inotropic (DPI) effect induced by intravenous isoproternol
Procedure: Note: A determination of β-adrenergic receptor blocking activity of test compounds in open chest dog was as follows. Thus dogs were anesthetized with pentbarbital sodium (administrated 30 - 40 mg./kg. intraveneously). Heart rate, myocardial contractile force and blood pressure were recorded with NIHON KODEN RM-150 polygraph. A depressive effect of test compounds on positive chronotropic (DPC), positive inotropic (DPI) and depressor effect (DDE) induced by isoproternol, which was injected intraveneously at a quarter interval, was determined.

Row | SMILES | Acute toxicity LD50 (male mice) [mg/kg] | β-adrenergic receptor blocking activity in open chest dog (propranolol = 1), DDE (β-adrenergic receptor) | β-adrenergic receptor blocking activity in open chest dog (propranolol = 1), DPC (β-adrenergic receptor) | β-adrenergic receptor blocking activity in open chest dog (propranolol = 1), DPI (β-adrenergic receptor)
1 | CC(C)(C)NCC(O)CSc1nc(-c2ccc(C(N)=O)s2)cs1 (stereo not shown) [Example 37, 2-(3'-t-butylamino-2'-hydroxypropylthio)-4-(5'-carbamoyl-2'-thienyl)thiazole] | 86 | 8 | 15 | 15
2 | CC(=O)Nc1ccc(OCC(O)CNC(C)C)cc1 (stereo not shown) [Practolol, reference compound] | – | 0.08 | 0.5 | 0.7
